From patent US7122541B2, “Methods of inhibiting metastases” (Rhode Island Hospital, priority 2001, dated 2006)
Entries after “also recorded” stand apart in the source; their conditions may differ.

Legend:
LS-180 cells [1] = test: MTT cell proliferation assay; assay type: cell-based, human
Procedure: (§1) Cell proliferation was assessed using a standard MTT (3,(4,5-dimethylthiazol-2yl)2,5-diphenyltetrazolium bromide; Sigma, St. Louis, Mo.) dye at 570 nm. Cells were into seeded in 96-well microtiter plates (2×10^5 cells/well) using 200 μl of medium. After a 12 hour incubation, Taurolidine was applied for a period of 6, 9, 12, 24 or 48 hours. At each time point 20 μl of MTT (5 mg/ml) was added and the cells were incubated at 37° C. for an additional 30 minutes. The medium was removed and the dye was eluted using acidic isopropyl alcohol (0.04N HCl). Cell viability was measured using crystal violet dye. Cells were seeded and treated with Taurolidine as described for the MTT assay. The medium was then removed and the cells were stained and fixed using a crystal violet staining solution containing 0.75% Crystal violet, 50% EtOH, 0.25% NaCl, and 1.75% formaldehyde for 10 minutes at room temperature. After staining and fixation the cells were rinsed with water and air-dried. The crystal violet dye was eluted using a 1% SDS in PBS solution and the absorbance was measured at 540 nm in a microtiter plate reader.
(§2) The human LS-180 colon cancer cell line was incubated with 25, 50, 75, and 100 μm concentrations of Taurolidine, and an MTT assay was performed at 6, 9, 12, 24 and 48 hours after Taurolidine administration. An accompanying crystal violet assay was performed under the same conditions. […] Flow cytometry was also performed using bromodeoxyuridine (BrdU) to help quantify the proportion of cells in S phase and evaluate cell proliferation.

caspase-3 = test: Caspase-3 colorimetric assay (DEVD-pNA substrate); assay type: cell-based, human
Procedure: To measure caspase activity, cells were incubated in six-well Falcon plates (1×10^6 cells/well) and harvested by trypsinization. The cells were then pelleted and lysed as per the manufacturer's recommendation (MBL, Nagoya, Japan) and the cytosolic protein concentration was quantified using a BCA protein assay reagent (Pierce, Rockford, Ill.). The caspase-3 assay was performed in a 96-well microtiter plate using 100 μg of protein and 5 μl of 4 mM DEVD-pNA Substrate (CPP32/caspase-3 Colorimetric Protease Assay Kit; MBL, Nagoya, Japan). The protein and reagent were then incubated for 2 hours at 37° C. A background reading from cell lysates and buffer without DEVD-pNA substrate was subtracted from samples; the assay was performed in triplicate. Samples were read at 405 nm in a microtiter plate reader.
Caspase Inhibitor I (Z-VAD-fink; z-Val-Ala-Asp(OMe)-CH2F, Calbiochem; La Jolla, Calif.) was used from a 21 mM stock in DMSO stored at −20° C. until use and then diluted into tissue culture medium immediately prior to its application. After a 2-hour incubation with the caspase inhibitor, cells were treated with Taurolidine. […] Untreated cells received an equivalent dilution of DMSO.

LS-180 cells [2] = test: Flow cytometry (propidium iodide / BrdU) cell cycle and DNA content analysis; assay type: cell-based, human
Procedure: FIGS. 4A–D are histograms showing that Taurolidine induces apoptosis in human colon cancer cells. In FIGS. 4A–C, LS-180 cells were treated with 100, 200, and 400 μM concentrations of Taurolidine. After 24 hours the cells were harvested by trypsinization, labeled with propidium iodide, and their DNA content was measured by flow cytometry. The percentage of subdiploid DNA content, representing DNA degradation in apoptotic cells, is shown. […] LS-180 cells were treated with 100, 200, and 400 -μM concentrations of Taurolidine and harvested by trypsinization at 12, 24, and 36 hours. Caspase-3 activity was assessed by its ability to cleave the DEVD-pNA colorimetric substrate.
LS-180 cells were cultured in 100 mm Falcon plates (5×10^6 cells/plate) for 12 hours to become adherent. Cells were incubated for 12, 14 and 48 hours with complete medium (control) or 50, 100 and […] concentrations of Taurolidine. The cells were then treated with 10 μm bromodeoxyuridine (BrdU) for 30 minutes, and both floating and adherent cells were harvested for fixation in 70% ethanol. The DNA was denatured using 2N HCl and labeled with FITC-conjugated anti-BrdU antibody (anti-bromodeoxyuridine-fluorescein monoclonal antibody; Roche, Indianapolis, Ind.). Before analysis by flow cytometry the cells were treated with ribonuclease (Dnase-free ribonuclease, Roche, Indianapolis, Ind.) and propidium iodide (Sigma, St. Louis, Mo.). FACs analysis was performed on a FACscan flow cytometer (Becton Dickinson, N.J.).

LS-180 cells [3] = test: Light microscopy / Hoechst 33258 staining for apoptotic morphology; assay type: cell-based, human; conditions: even at 400 μm; light microscopy or Hoechst 33258
[4] = test system: LS-180 hepatic metastases; test: Liver metastases model: splenic injection of LS-180 cells in nude mice, IP treatment; assay type: in vivo; conditions: for Serum CEA: mean ± SE, n = 20, after 3 weeks IP Taurolidine; for reduction in serum CEA levels vs control: 3 weeks IP therapy; for reduction in liver weight vs control: daily IP, 5 days/week, 3 weeks
Procedure: General anesthesia was induced using 400 μl choral hydrate (2%). Using sterile conditions, a vertical paramedian incision was used to expose the spleen. An intrasplenic injection of 1×10^5 tumor cells in 0.4 ml of serum free medium was performed, followed by splenectomy using hemoclips for vascular control. The incision was then closed using surgical staples. Beginning post injections days 2 or 5, mice received IP injections of 0.45% normal saline (n=10 per group) or Taurolidine (n=20 per group). Taurolidine (Boehringer Ingelheim, Germany) was given as a daily 0.5 ml IP injection of 2% solution ([…]) for 5 consecutive days per week for a total of 3 weeks. The day following the last treatment of Taurolidine or 0.45% NS, the mice were sacrificed and examined for gross tumor. Blood was drawn from the right ventricle, immediately centrifuged, and serum collected for CEA assays. The livers were weighed and fixed in HistoFix and representative sections taken for H&E microscopic examination. In addition, 9 mice (n=3 per group) were used to study the tumor model. At days 5, 10 and 15, mice that received a splenic tumor cell injection without any further intervention were sacrificed to assess tumor burden at varying time points. The livers were assessed for gross tumor and submitted in toto for histologic examination.

LS-180 cells [5] = test: Lactate dehydrogenase (LDH) release cytotoxicity assay; assay type: cell-based, human; conditions: 100, 200 and 400 μM, 24 hours
Procedure: (§3) Cytotoxicity was quantified using a standard lactate dehydrogenase cytotoxicity assay (Cytotoxicity Detection Kit, Roche). LS-180 cells (2.5×10^5 cell/well) were cultured in Falcon 96-well microtiter plates in a humidified incubator at 37° C., 5% CO2. […] Triton X-100 (1% final concentration) was used to lyse cells and determine the maximum release of LDH enzyme (high control). Cytotoxicity was determined as per the manufacturer's protocol, and the absorbance was measured at 490 nm in a microtiter plate reader.
(§4) Cytotoxicity was assessed by measuring lactate dehyhdrogenase (LDH) activity released from the cytosol of damaged cells. […] Taurolidine, even at a 400 μm concentration, produced minimal cytotoxic effects on LS-180 cells. […] This is in contradistinction to previously reported in vitro studies of Taurolidine on malignant cell lines.

[6] = as above; assay type: cell-based, human; conditions: human, LS-180 cells
Procedure: as §3, §4

LS-180 cells [7] = test: WST-8 tetrazolium cell number assay; conditions: dose-dependent; concentration not given
LS-180 cells [8] = test: Crystal violet cell viability / adherent cell assay; assay type: cell-based, human
Procedure: as §1, §2

[9] = dose-dependent, concentration not given
[10] = treatment begun 2 days after splenic tumor injection
[11] = treatment begun 5 days after splenic tumor injection

O=S1(=O)CCN(CN2CCS(=O)(=O)NC2)CN1 [Taurolidine, bis(1,1-dioxoperhydro-1,2,4-thiadiazinyl-4)methane]
decrease by MTT assay (LS-180 cells [1]; 100 μm Taurolidine, present as early as 9 hours after exposure): 40–50%
reduction in cell number (MTT assay) (LS-180 cells [1]; 100 μm, after 24 hours): 40–50%
decrease in adherent tumor cells (MTT assay) (LS-180 cells [1]; [9]): 60%
caspase-3 activity (caspase-3; 100, 200 and 400 μM, 12, 24 and 36 hours): dose-dependent increase; also recorded: dose dependent increase
sub-G1 peak by propidium iodide flow cytometry (LS-180 cells [2]; 50 and 100 μm, 24 hours): failed to demonstrate a sub-GI peak; also recorded: failed to demonstrate a sub-G1 peak
sub-diploid DNA peak (DNA degradation in apoptotic cells) (LS-180 cells [2]; 100, 200 and 400 μM, 24 hours): dose dependent increase
cell cycle progression / proliferation (flow cytometry, BrdU) (LS-180 cells [2]; treated vs untreated cells, 50 and 100 μm): no significant change in cell cycle progression; also recorded: no significant change in proliferation or cell cycle
apoptotic morphology (LS-180 cells [3]): failed to demonstrate cell shrinkage, cytoplasmic condensation, nuclear fragmentation or blebbing
tolerability / deaths during therapy ([4]; 10-mg per day IP, five consecutive days x 3 weeks): well tolerated, resulting in no deaths of animals; also recorded: all mice tolerated the full 3-week course of treatment
Serum CEA ([4]; Day 2 group): 7.73 ± 0.52 ng/mL
Serum CEA ([4]; Day 5 group): 11.88 ± 1.97 ng/mL
gross hepatic tumor burden vs control ([4]; daily IP Taurolidine for 3 weeks, begun day 2 or 5): dramatic reduction in hepatic tumor involvement; also recorded: dramatic reduction of tumor burden; also recorded: striking decrease in tumor burden; also recorded: marked reduction in tumor burden; also recorded: marked decrease in tumor burden
reduction in serum CEA levels vs control [4, 10]: 69%
reduction in liver weight vs control [4, 10]: 18%
reduction in serum CEA levels vs control [4, 11]: 78%
reduction in liver weight vs control [4, 11]: 22%
cytolysis (culture medium LDH activity) (LS-180 cells [5]): no significant cytolysis
cytotoxicity ([6]; 50, 100 and 400 μm, 12 or 24 hours, read-out: percent cytotoxicity (LDH release), all cases): < 2%
cytotoxicity at 24 h, 50 µM ([6]; 50 μm, 24 hours, read-out: percent cytotoxicity (LDH release)): -0.07%
cytotoxicity at 24 h, 100 µM ([6]; 100 μm, 24 hours, read-out: percent cytotoxicity (LDH release)): 0.15%
cytotoxicity at 24 h, 400 µM ([6]; 400 μm, 24 hours, read-out: percent cytotoxicity (LDH release)): 1.58%
decrease in tumor cell viability (WST-8 assay) (LS-180 cells [7]): 85%
cell adherence (crystal violet assay) (LS-180 cells [8]; 10-400 μM Taurolidine): loss of cell adherence
reduction in cell number (crystal violet assay) (LS-180 cells [8]; 100 μm, after 24 hours): 40–50%
decrease in adherent tumor cells (crystal violet assay) (LS-180 cells [8]; [9]): 60%
decrease in tumor cell viability (crystal violet assay) (LS-180 cells [8]; [9]): 85%

z-Val-Ala-Asp(OMe)-CH2F [Z-VAD-fmk]
caspase-3 activity in Taurolidine-treated cells after caspase inhibition (caspase-3; 50 μM Z-VAD-fmk before 100, 200, 400 μM Taurolidine, vs untreated LS-180 cells): no significant increase in caspase-3 activity
loss of cell adherence of Taurolidine-treated cells after caspase inhibition (crystal violet) (LS-180 cells [8]; 50-uM Z-VAD-fmk before Taurolidine): not affected
